This note sets out measurements from patent publication US3978211A, “Lipiarmycin and its preparation” (Gruppo Lepetit S.p.A., priority 1973, dated 1976).

In data set [1] the test system is Staphylococcus aureus ATCC 6538 resistant to bacitracin. The experiment in a line: Minimum inhibitory concentration, resistant strain (Table II). Type of data set: cell-based. Particulars: S. aureus ATCC 6538 resistant to bacitracin. From the text:
(§1) Lipiarmycin is also active against strains which are resistant to other antibiotics which are widely used in chemotherapeutic practice. As a representative example, in the following table the minimum inhibitory concentrations (M.I.C.), γ/ml., of lipiarmycin against Staphylococcus aureus strains resistant to several antibiotics are reported.

Data set [2] concerns Staphylococcus aureus ATCC 6538 resistant to cephaloridine. Described as above. Type of data set: cell-based.
Text: as §1

Data set [3] has as its system Staphylococcus aureus ATCC 6538 resistant to chloramphenicol. The data set is described as above. Type of data set: cell-based.
Text: as §1

Data set [4] concerns Staphylococcus aureus ATCC 6538 resistant to erythromycin. The description is as above. Type of data set: cell-based.
Text: as §1

The subject of data set [5] is Staphylococcus aureus ATCC 6538 resistant to novobiocin. The description is as above. Type of data set: cell-based.
Text: as §1

Data set [6] has as its system Staphylococcus aureus ATCC 6538 resistant to oleandomycin. The data set is described as above. Type of data set: cell-based.
Text: as §1

For data set [7], the system named is Staphylococcus aureus ATCC 6538 resistant to penicillin. Described as above. Type of data set: cell-based.
Text: as §1

Data set [8] relates to Staphylococcus aureus ATCC 6538 resistant to streptomycin. The data set is described as above. Type of data set: cell-based.
Text: as §1

For data set [9], the system named is Staphylococcus aureus ATCC 6538 resistant to tetracycline. The description is as above. Type of data set: cell-based.
Text: as §1

For data set [10] the following is noted: pH 7.
Data set [11] concerns mice. As to the kind of experiment: Toxicity, LD50 i.p. in mice.
The subject of data set [12] is Staphylococcus aureus Tour. The experiment in a line: Minimal inhibitory concentration. Type of data set: cell-based. An excerpt:
(§2) The antibiotic substance of the invention is active against bacteria, and in particular against the following microorganisms at the indicated concentrations.

Data set [13] has as its system Diplococcus pneumoniae UC 41. The experiment in a line: Minimal inhibitory concentration. Type of data set: cell-based.
Text: as §2

Data set [14] deals with Mycoplasma gallisepticum H 21 C.Z.B. The experiment in a line: Minimal inhibitory concentration. Type of data set: cell-based.
Text: as §2

Data set [15] relates to Streptococcus mutans ATCC 25175. As to the kind of experiment: Minimal inhibitory concentration. Type of data set: cell-based.
Text: as §2

For data set [16], the system named is Staphylococcus aureus ATCC 6538. The experiment in a line: Minimal inhibitory concentration. Type of data set: cell-based.
Text: as §2

For data set [17], the system named is Streptococcus hemolyticus C203. The experiment in a line: Minimal inhibitory concentration. Type of data set: cell-based.
Text: as §2

Data set [18] relates to Mycobacterium tub. H37Rv ATCC 9360. The experiment in a line: Minimal inhibitory concentration. Type of data set: cell-based.
Text: as §2

Data set [19] is classed as physicochemical. Conditions: methyl cellosolve. From the text:
An ionizable function is spectrophotometrically evidenced with pKa (in methyl cellosolve): 6.8

The subject of data set [20] is Staphylococcus aureus ATCC 6538 resistant to streptothricin. The experiment in a line: Minimum inhibitory concentration, resistant strain (Table II). Particulars: S. aureus ATCC 6538 resistant to streptothricin. Type of data set: cell-based.
Text: as §1

Data set [21] has as its system Staphylococcus aureus ATCC 6538 resistant to neomycin. The data set is described as above. Conditions: S. aureus ATCC 6538 resistant to neomycin. Type of data set: cell-based.
Text: as §1

Setting [22] is: Staphylococcus aureus, ATCC6538, read-out: M.I.C. of other antibiotics.

Converted amounts (≈) assume the structure as drawn. Residues, ends and D or L forms follow the SMILES beside them.

The term pKa denotes the negative logarithm of the acid dissociation constant. A high value points to a weaker acid or stronger base.

On to `CC[C@H](C)[C@H](N)C1=N[C@H](C(=O)N[C@@H](CC(C)C)C(=O)N[C@H](CCC(=O)O)C(=O)N[C@H](C(=O)N[C@H]2CCCCNC(=O)[C@H](CC(N)=O)NC(=O)[C@@H](CC(=O)O)NC(=O)[C@H](Cc3cnc[nH]3)NC(=O)[C@@H](Cc3ccccc3)NC(=O)[C@H]([C@@H](C)CC)NC(=O)[C@@H](CCCN)NC2=O)[C@@H](C)CC)CS1` [bacitracin, reference compound] (HELM PEPTIDE1{[CC[C@H](C)[C@H](N)C1=N[C@H](C(=O)[*:2])CS1].L.[dE].I.K.[NCCC[C@@H](N[*:1])C(=O)[*:2]].I.[dF].H.[dD].N}$PEPTIDE1,PEPTIDE1,5:R3-11:R2$$$V2.0), for which, in data set [1], the “M.I.C. of other antibiotics” value was greater than 100 µg/mL.
For the compound `O=C(Cc1cccs1)N[C@@H]1C(=O)N2C(C(=O)[O-])=C(C[n+]3ccccc3)CS[C@H]12` [cephaloridine, reference compound], the MIC in [2] (setting [22]) is greater than 100 µg/mL.
On to `O=C(N[C@H](CO)[C@H](O)c1ccc([N+](=O)[O-])cc1)C(Cl)Cl` [chloramphenicol, reference compound], for which the MIC in data set [3] (setting [22]) is greater than 100 µg/mL.
Turning to `CC[C@H]1OC(=O)[C@H](C)[C@@H](O[C@H]2C[C@@](C)(OC)[C@@H](O)[C@H](C)O2)[C@H](C)[C@@H](O[C@@H]2O[C@H](C)C[C@H](N(C)C)[C@H]2O)[C@](C)(O)C[C@@H](C)C(=O)[C@H](C)[C@@H](O)[C@]1(C)O` [erythromycin, reference compound], the MIC in [4] (setting [22]) is greater than 100 µg/mL.
Regarding `CO[C@@H]1[C@@H](OC(N)=O)[C@@H](O)[C@H](Oc2ccc3c(O)c(NC(=O)c4ccc(O)c(CC=C(C)C)c4)c(=O)oc3c2C)OC1(C)C` [novobiocin, reference compound], the MIC in [5] (setting [22]) was greater than 100 µg/mL.
Turning to `CO[C@H]1C[C@H](O[C@H]2[C@H](C)[C@@H](O[C@@H]3O[C@H](C)C[C@H](N(C)C)[C@H]3O)[C@@H](C)C[C@@]3(CO3)C(=O)[C@H](C)[C@@H](O)[C@@H](C)[C@@H](C)OC(=O)[C@@H]2C)O[C@@H](C)[C@@H]1O` [oleandomycin, reference compound], the MIC in data set [6] (setting [22]) is 50 µg/mL (≈ 72.7 µM).
On to `CC1(C)S[C@@H]2[C@H](NC(=O)Cc3ccccc3)C(=O)N2[C@H]1C(=O)O` [penicillin, reference compound], for which the MIC in data set [7] (setting [22]) is greater than 100 µg/mL.
With `[H]/N=C(/N)N[C@H]1[C@H](O)[C@@H](O)[C@H](O[C@@H]2O[C@@H](C)[C@](O)(C=O)[C@H]2O[C@@H]2O[C@@H](CO)[C@H](O)[C@@H](O)[C@@H]2NC)[C@@H](N/C(N)=N\[H])[C@@H]1O` [streptomycin, reference compound], in [8] (setting [22]), the MIC was greater than 100 µg/mL.
For the compound `CN(C)[C@@H]1C(O)=C(C(N)=O)C(=O)[C@@]2(O)C(O)=C3C(=O)c4c(O)cccc4[C@@](C)(O)[C@H]3C[C@@H]12` [tetracycline, reference compound], the MIC in data set [9] (setting [22]) was greater than 100 µg/mL.
On to lipiarmycin, for which the Solubility entry in data set [10] is given as “Sparingly soluble to insoluble”. For the same compound, the LD50 entry in [11] was “about 500 mg./kg”. The “MINIMAL INHIBITORY CONCENTRATION” value in [12] (Staphylococcus aureus Tour with 10 percent bovine serum) was 10 µg/mL; in data set [12] (Staphylococcus aureus Tour, without serum), 2 µg/mL; in data set [13], 50 µg/mL; in data set [14], 50 µg/mL; in [15] it was 0.5 µg/mL; in [16] it was 2 µg/mL. Besides, the “MINIMAL INHIBITORY CONCENTRATION” value in [17] was 10 µg/mL; in [18] it was 50 µg/mL. In data set [19], this compound yielded a pKa of 6.8. Further, the M.I.C. of lipiarmycin is 5 µg/mL in data set [6] (S. aureus ATCC 6538 resistant to oleandomycin); 2 µg/mL in [3] (S. aureus ATCC 6538 resistant to chloramphenicol); 5 µg/mL in data set [4] (S. aureus ATCC 6538 resistant to erythromycin); 5 µg/mL in [8] (S. aureus ATCC 6538 resistant to streptomycin); 5 µg/mL in [20]; 2 µg/mL in data set [7] (S. aureus ATCC 6538 resistant to penicillin). In addition, the M.I.C. of lipiarmycin was 2 µg/mL in data set [5] (S. aureus ATCC 6538 resistant to novobiocin); 5 µg/mL in [9] (S. aureus ATCC 6538 resistant to tetracycline); 5 µg/mL in data set [2] (S. aureus ATCC 6538 resistant to cephaloridine); 5 µg/mL in [1]; 2 µg/mL in data set [21].
As for neomycin [reference compound], the “M.I.C. of other antibiotics” value in data set [21] is greater than 100 µg/mL.
streptothricin [reference compound]: the “M.I.C. of other antibiotics” value in data set [20] is greater than 100 µg/mL.
